Data on 1 compound can be found in patent publication US7179898B1, “Human vanilloid receptor-like receptor” (Merck & Co., Inc., priority 1998, dated 2007).

Each structure is given as a SMILES string.

Assay [1] has as its target T1, human vanilloid receptor-like receptor (VR-L) (Homo sapiens, UniProt Q9Y5S1).
T1 sequence (Q9Y5S1 1-764): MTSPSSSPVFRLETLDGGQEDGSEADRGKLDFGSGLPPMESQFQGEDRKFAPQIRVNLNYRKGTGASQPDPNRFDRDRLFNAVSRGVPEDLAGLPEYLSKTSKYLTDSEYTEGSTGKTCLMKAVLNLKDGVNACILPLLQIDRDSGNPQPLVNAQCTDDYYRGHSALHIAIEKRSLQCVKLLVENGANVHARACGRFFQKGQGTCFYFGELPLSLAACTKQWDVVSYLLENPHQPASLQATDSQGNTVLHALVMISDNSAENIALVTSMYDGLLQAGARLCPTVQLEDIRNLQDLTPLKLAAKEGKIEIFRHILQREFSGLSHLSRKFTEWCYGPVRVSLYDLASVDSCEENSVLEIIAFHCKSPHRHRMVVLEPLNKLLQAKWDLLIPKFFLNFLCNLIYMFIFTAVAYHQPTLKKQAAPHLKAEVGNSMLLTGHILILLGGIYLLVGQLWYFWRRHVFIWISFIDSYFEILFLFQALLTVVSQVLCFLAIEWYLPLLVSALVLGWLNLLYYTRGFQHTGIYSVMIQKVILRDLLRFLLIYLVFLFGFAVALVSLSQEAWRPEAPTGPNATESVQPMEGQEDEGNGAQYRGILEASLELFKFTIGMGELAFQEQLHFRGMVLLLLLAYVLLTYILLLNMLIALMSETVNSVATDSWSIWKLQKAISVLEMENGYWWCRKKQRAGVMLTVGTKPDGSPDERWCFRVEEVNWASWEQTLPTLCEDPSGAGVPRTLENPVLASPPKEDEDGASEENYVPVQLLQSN
Briefly: Xenopus oocyte expression, two-electrode voltage clamp at -70 mV. Format: cell-based. The conditions noted are these: 1 μM capsaicin in the perfusate; Xenopus oocytes expressing human vr-l cDNA. How it is done: Adult female Xenopus laevis were anaesthetized by immersion in a 0.4% solution of 3-aminobenzoic acid ethylester for 30–45 mins (or until unresponsive). Ovary tissue was removed via a small abdominal incision and Stage V and VI oocytes were isolated with fine forceps. After mild collagenase treatment to remove follicle cells (Type 1A, 0.5 mg mL^−1, for 8 mins), the oocyte nuclei were directly injected with 10–20 nl of injection buffer (88 mM NaCl, 1 mM KCl, 15 mM HEPES, at pH 7, filtered through nitrocellulose) or sterile water containing vr-l cDNA engineered into the expression vector pcDNA3.1Zeo. Following incubation for 48 hrs, oocytes were placed in a 50 μL bath and perfused at 4–6 mL min^−1 with modified Barth's medium (MBS) consisting of 88 mM NaCl, 1 mM KCl, 10 mM HEPES, 0.82 mM MgSO4, 0.33 mM Ca(NO3)2, 0.91 mM CaCl2, 2.4 mM NaHCO3, at pH 7.5. Cells were impaled with two 1–3 MΩ electrodes containing 2 M KCl and voltage clamped between at −70 mV. Drugs were applied in the perfusate and heat was applied by bath applying preheated MBS.

Assay [2] deals with T1, human vanilloid receptor-like receptor (VR-L). Briefly: Whole-cell patch clamp of HEK 293 cells transiently transfected with vr-l cDNA. Format: cell-based. The arrangement: identified as together containing the entire coding region of the VR-L gene; expressed in transfected cells; host or cells: HEK 293 cells, transient transfection. Particulars: 1 μM capsaicin by fast perfusion; HEK 293 cells expressing human vr-l cDNA, -60 mV. From the text: A glass coverslip containing a monolayer of human embryonic kidney (HEK) 293 cells transiently transfected with the vr-l cDNA was placed in a perspex chamber mounted on the stage of a Nikon Diaphot inverted phase-contrast microscope and continuously perfused with calcium-free artificial cerebrospinal fluid (aCSF, see below). Fire-polished patch pipettes were pulled on program 10 of a WZ, DMZ-Universal puller using conventional 120TF-10 electrode-glass. Pipette tip diameter was generally 1.5–2.5 μM, resistances were approximately 4MΩ. The intracellular pipette solution used is detailed below. High resistance (>10 GΩ) seals were formed by advancing the pipette onto the cell and exerting gentle suction to break through the membrane. The cells were voltage-clamped at −60 mV, using an Axon Axopatch 2 amplifier. Drugs or heated aCSF were applied to the cell under study by fast perfusion using a large internal diameter (50–100 μM) triple-barrel pipette assembly. Drug responses were obtained by rapidly positioning the perfusion pipette to completely envelop the cell in drug solution. This was achieved via a Biologic rapid solution changer which pivots the barrels into the desired position. Fast washout was obtained by re-positioning the washout barrel in line with the cell. [table] [table]

For `COc1cc(CNC(=O)CCCC/C=C/C(C)C)ccc1O` [capsaicin], the “response (inward current) to application of drug” value in assay [1] and in assay [2] was “No responses” each time.
